Laboratory results published in patent publication US6451339B2, “Compositions and methods for improved delivery of hydrophobic agents” (Lipocine, Inc., priority 1999, dated 2002).
Each block holds one compound with its values, some of them ahead of it.

Tests used:
[1] = value reported by the manufacturer of the commercial product, a rough average, or inventors' judgment; cited from earlier work
[2] = Surfactant combinations giving clear aqueous dispersions (maximum hydrophobic surfactant, visual optical clarity); conditions: for maximum hydrophobic surfactant concentration giving a clear aqueous dispersion: Arlacel 186 - Cremophor RH-40 pair; for effect of added solubilizer on the relative amount of hydrophobic surfactant that can be used: Cremophor RH 40 hydrophilic surfactant, 20% solubilizer; for approximate maximum grams of hydrophobic surfactant per 100 g of hydrophilic surfactant giving acceptable optical clarity: 10× aqueous dispersion, no solubilizer
[3] = weight percent of solubilizer 0
[4] = weight percent of solubilizer 20
[5] = weight percent of solubilizer 50
[6] = hydrophilic surfactant Cremophor RH40 + 20% Ethanol
[7] = hydrophilic surfactant Cremophor RH40 + 20% Glycofurol
[8] = hydrophilic surfactant Cremophor RH40 + 20% PEG-400
[9] = hydrophilic surfactant Cremophor RH40 + 20% Triacetin
[10] = hydrophilic surfactant Cremophor RH40, solubilizer (None), reproduced from Table 19
[11] = hydrophilic surfactant PEG-8 Capric/Caprylic (Labrasol)
[12] = hydrophilic surfactant PEG-25 Glyceryl trioleate (Tagat TO)
[13] = hydrophilic surfactant PEG-35 Castor Oil (Incrocas 35)
[14] = hydrophilic surfactant PEG-40H Castor Oil (Cremophor RH-40)
[15] = hydrophilic surfactant PEG-60 Corn Oil (Crovol M-70)
[16] = hydrophilic surfactant Polysorbate 80 (Tween 80)
[17] = hydrophilic surfactant Polysorbate-20 (Tween 20)

Compound: CC(C)CCC[C@@H](C)[C@H]1CC[C@H]2[C@@H]3CC=C4C[C@@H](O)CC[C@]4(C)[C@H]3CC[C@]12C [Cholesterol]
- HLB [1]: <10

- maximum hydrophobic surfactant concentration giving a clear aqueous dispersion [2, 3]: 20 g per 100 g of hydrophilic sur
- maximum hydrophobic surfactant concentration giving a clear aqueous dispersion [2, 4]: 25 g per 100 g of hydrophilic sur
- maximum hydrophobic surfactant concentration giving a clear aqueous dispersion [2, 5]: 30 g per 100 g of hydrophilic sur
Compound: CCO [Ethanol]

Compound: CCCCC/C=C\C/C=C\CCCCCCCC(=O)OCC [Ethyl linoleate]
- HLB [1]: <10

Compound: CCCCCCCC/C=C\CCCCCCCC(=O)OCC(O)CO (centres unmarked) [Glyceryl monooleate (C18:1), Glyceryl monooleate]
- effect of added solubilizer on the relative amount of hydrophobic surfactant that can be used [2]: moderate
- approximate maximum grams of hydrophobic surfactant per 100 g of hydrophilic surfactant giving a clear aqueous dispersion [2, 6]: 42 g per 100 g of hydrophilic sur
- approximate maximum grams of hydrophobic surfactant per 100 g of hydrophilic surfactant giving a clear aqueous dispersion [2, 7]: 44 g per 100 g of hydrophilic sur
- approximate maximum grams of hydrophobic surfactant per 100 g of hydrophilic surfactant giving a clear aqueous dispersion [2, 8]: 40 g per 100 g of hydrophilic sur
- approximate maximum grams of hydrophobic surfactant per 100 g of hydrophilic surfactant giving a clear aqueous dispersion [2, 9]: 40 g per 100 g of hydrophilic sur
- approximate maximum grams of hydrophobic surfactant per 100 g of hydrophilic surfactant giving a clear aqueous dispersion [2, 10]: 40 g per 100 g of hydrophilic sur
- approximate maximum grams of hydrophobic surfactant per 100 g of hydrophilic surfactant giving acceptable optical clarity [2, 11]: 35 g per 100 g of hydrophilic sur
- approximate maximum grams of hydrophobic surfactant per 100 g of hydrophilic surfactant giving acceptable optical clarity [2, 12]: 10 g per 100 g of hydrophilic sur
- approximate maximum grams of hydrophobic surfactant per 100 g of hydrophilic surfactant giving acceptable optical clarity [2, 13]: 15 g per 100 g of hydrophilic sur
- approximate maximum grams of hydrophobic surfactant per 100 g of hydrophilic surfactant giving acceptable optical clarity [2, 14]: 40 g per 100 g of hydrophilic sur
- approximate maximum grams of hydrophobic surfactant per 100 g of hydrophilic surfactant giving acceptable optical clarity [2, 15]: 10 g per 100 g of hydrophilic sur
- approximate maximum grams of hydrophobic surfactant per 100 g of hydrophilic surfactant giving acceptable optical clarity [2, 16]: 12 g per 100 g of hydrophilic sur
- approximate maximum grams of hydrophobic surfactant per 100 g of hydrophilic surfactant giving acceptable optical clarity [2, 17]: 10 g per 100 g of hydrophilic sur

Compound: CC(C)=CCC[C@@H](C)[C@H]1CC[C@@]2(C)C3=C(CC[C@]12C)[C@@]1(C)CC[C@H](O)C(C)(C)[C@@H]1CC3 [Ianosterol]
- HLB [1]: <10

Compound: CCCCC/C=C\C/C=C\CCCCCCCC(=O)OC(C)C [Isopropyl linoleate]
- HLB [1]: <10

Compound: CCCCCCCCCCCCCC(=O)OC(C)C [Isopropyl myristate]
- HLB [1]: <10

- approximate maximum grams of hydrophobic surfactant per 100 g of hydrophilic surfactant giving acceptable optical clarity [2, 11]: 90 g per 100 g of hydrophilic sur
- approximate maximum grams of hydrophobic surfactant per 100 g of hydrophilic surfactant giving acceptable optical clarity [2, 12]: 10 g per 100 g of hydrophilic sur
- approximate maximum grams of hydrophobic surfactant per 100 g of hydrophilic surfactant giving acceptable optical clarity [2, 13]: 40 g per 100 g of hydrophilic sur
- approximate maximum grams of hydrophobic surfactant per 100 g of hydrophilic surfactant giving acceptable optical clarity [2, 14]: 45 g per 100 g of hydrophilic sur
- approximate maximum grams of hydrophobic surfactant per 100 g of hydrophilic surfactant giving acceptable optical clarity [2, 16]: 70 g per 100 g of hydrophilic sur
- approximate maximum grams of hydrophobic surfactant per 100 g of hydrophilic surfactant giving acceptable optical clarity [2, 17]: 95 g per 100 g of hydrophilic sur
Compound: CCCCCCCCCCCCOCCOCCOCCOCCO [PEG-4 lauryl ether]

Compound: CCCCCCCCCCCCCCCCCC(=O)OCC(CO)(CO)COC(=O)CCCCCCCCCCCCCCCCC [Pentaerythrityl distearate]
- HLB [1]: >10

Compound: CCCCCCCC/C=C\CCCCCCCC(=O)OCC(COC(=O)CCCCCCC/C=C\CCCCCCCC)(COC(=O)CCCCCCC/C=C\CCCCCCCC)COC(=O)CCCCCCC/C=C\CCCCCCCC [Pentaerythrityl tetraoleate]
- HLB [1]: >10

- maximum hydrophobic surfactant concentration giving a clear aqueous dispersion [2, 3]: 20 g per 100 g of hydrophilic sur
- maximum hydrophobic surfactant concentration giving a clear aqueous dispersion [2, 4]: 28 g per 100 g of hydrophilic sur
- maximum hydrophobic surfactant concentration giving a clear aqueous dispersion [2, 5]: 30 g per 100 g of hydrophilic sur
Compound: CC(O)CO (centres unmarked) [Propylene Glycol]

Compound: CCCCCCCCCC(=O)OCC(C)OC(=O)CCCCCCCCC (centres unmarked) [Propylene glycol dicaprate]
- HLB [1]: >6

- maximum hydrophobic surfactant concentration giving a clear aqueous dispersion [2, 3]: 20 g per 100 g of hydrophilic sur
- maximum hydrophobic surfactant concentration giving a clear aqueous dispersion [2, 4]: 28 g per 100 g of hydrophilic sur
- maximum hydrophobic surfactant concentration giving a clear aqueous dispersion [2, 5]: 25 g per 100 g of hydrophilic sur
Compound: CC(=O)OCC(COC(C)=O)OC(C)=O [Triacetin]

- approximate maximum grams of hydrophobic surfactant per 100 g of hydrophilic surfactant giving acceptable optical clarity [2, 11]: 25 g per 100 g of hydrophilic sur
- approximate maximum grams of hydrophobic surfactant per 100 g of hydrophilic surfactant giving acceptable optical clarity [2, 12]: 10 g per 100 g of hydrophilic sur
- approximate maximum grams of hydrophobic surfactant per 100 g of hydrophilic surfactant giving acceptable optical clarity [2, 14]: 10 g per 100 g of hydrophilic sur
- approximate maximum grams of hydrophobic surfactant per 100 g of hydrophilic surfactant giving acceptable optical clarity [2, 15]: 10 g per 100 g of hydrophilic sur
Compound: Glyceryl mono-, dioleate

- approximate maximum grams of hydrophobic surfactant per 100 g of hydrophilic surfactant giving acceptable optical clarity [2, 11]: 25 g per 100 g of hydrophilic sur
- approximate maximum grams of hydrophobic surfactant per 100 g of hydrophilic surfactant giving acceptable optical clarity [2, 12]: 10 g per 100 g of hydrophilic sur
- approximate maximum grams of hydrophobic surfactant per 100 g of hydrophilic surfactant giving acceptable optical clarity [2, 13]: 20 g per 100 g of hydrophilic sur
- approximate maximum grams of hydrophobic surfactant per 100 g of hydrophilic surfactant giving acceptable optical clarity [2, 14]: 30 g per 100 g of hydrophilic sur
- approximate maximum grams of hydrophobic surfactant per 100 g of hydrophilic surfactant giving acceptable optical clarity [2, 15]: 20 g per 100 g of hydrophilic sur
- approximate maximum grams of hydrophobic surfactant per 100 g of hydrophilic surfactant giving acceptable optical clarity [2, 16]: 20 g per 100 g of hydrophilic sur
- approximate maximum grams of hydrophobic surfactant per 100 g of hydrophilic surfactant giving acceptable optical clarity [2, 17]: 25 g per 100 g of hydrophilic sur
Compound: PEG-3 oleyl ether

- approximate maximum grams of hydrophobic surfactant (Arlacel 186) per 100 g of hydrophilic surfactant giving a clear aqueous dispersion ([2]; hydrophobic surfactant Arlacel 186 + 20% Ethanol): 25 g per 100 g of hydrophilic sur
- approximate maximum grams of hydrophobic surfactant (Arlacel 186) per 100 g of hydrophilic surfactant giving a clear aqueous dispersion ([2]; hydrophobic surfactant Arlacel 186 + 20% Triacetin): 25 g per 100 g of hydrophilic sur
- approximate maximum grams of hydrophobic surfactant (Arlacel 186) per 100 g of hydrophilic surfactant giving a clear aqueous dispersion ([2]; hydrophobic surfactant Arlacel 186, solubilizer (None), from Table 19): 20 g per 100 g of hydrophilic sur
Compound: PEG-20 sorbitan monolaurate

- maximum hydrophobic surfactant concentration giving a clear aqueous dispersion [2, 3]: 20 g per 100 g of hydrophilic sur
- maximum hydrophobic surfactant concentration giving a clear aqueous dispersion [2, 4]: 25 g per 100 g of hydrophilic sur
- maximum hydrophobic surfactant concentration giving a clear aqueous dispersion [2, 5]: 25 g per 100 g of hydrophilic sur
Compound: PEG-400

- approximate maximum grams of hydrophobic surfactant per 100 g of hydrophilic surfactant giving acceptable optical clarity [2, 11]: 35 g per 100 g of hydrophilic sur
- approximate maximum grams of hydrophobic surfactant per 100 g of hydrophilic surfactant giving acceptable optical clarity [2, 12]: 10 g per 100 g of hydrophilic sur
- approximate maximum grams of hydrophobic surfactant per 100 g of hydrophilic surfactant giving acceptable optical clarity [2, 13]: 10 g per 100 g of hydrophilic sur
- approximate maximum grams of hydrophobic surfactant per 100 g of hydrophilic surfactant giving acceptable optical clarity [2, 14]: 5 g per 100 g of hydrophilic sur
- approximate maximum grams of hydrophobic surfactant per 100 g of hydrophilic surfactant giving acceptable optical clarity [2, 15]: 10 g per 100 g of hydrophilic sur
- approximate maximum grams of hydrophobic surfactant per 100 g of hydrophilic surfactant giving acceptable optical clarity [2, 16]: 10 g per 100 g of hydrophilic sur
- approximate maximum grams of hydrophobic surfactant per 100 g of hydrophilic surfactant giving acceptable optical clarity [2, 17]: 35 g per 100 g of hydrophilic sur
Compound: Polyglyceryl-6 dioleate

- approximate maximum grams of hydrophobic surfactant per 100 g of hydrophilic surfactant giving a clear aqueous dispersion [2, 7]: 65 g per 100 g of hydrophilic sur
- approximate maximum grams of hydrophobic surfactant per 100 g of hydrophilic surfactant giving a clear aqueous dispersion [2, 9]: 65 g per 100 g of hydrophilic sur
- approximate maximum grams of hydrophobic surfactant per 100 g of hydrophilic surfactant giving a clear aqueous dispersion [2, 10]: 20 g per 100 g of hydrophilic sur
- approximate maximum grams of hydrophobic surfactant per 100 g of hydrophilic surfactant giving acceptable optical clarity [2, 11]: 30 g per 100 g of hydrophilic sur
- approximate maximum grams of hydrophobic surfactant per 100 g of hydrophilic surfactant giving acceptable optical clarity [2, 12]: 10 g per 100 g of hydrophilic sur
- approximate maximum grams of hydrophobic surfactant per 100 g of hydrophilic surfactant giving acceptable optical clarity [2, 13]: 30 g per 100 g of hydrophilic sur
- approximate maximum grams of hydrophobic surfactant per 100 g of hydrophilic surfactant giving acceptable optical clarity [2, 14]: 20 g per 100 g of hydrophilic sur
- approximate maximum grams of hydrophobic surfactant per 100 g of hydrophilic surfactant giving acceptable optical clarity [2, 15]: 15 g per 100 g of hydrophilic sur
- approximate maximum grams of hydrophobic surfactant per 100 g of hydrophilic surfactant giving acceptable optical clarity [2, 16]: 10 g per 100 g of hydrophilic sur
- approximate maximum grams of hydrophobic surfactant per 100 g of hydrophilic surfactant giving acceptable optical clarity [2, 17]: 20 g per 100 g of hydrophilic sur
Compound: Sorbitan monolaurate

Compound: Sorbitan monooleate
- effect of added solubilizer on the relative amount of hydrophobic surfactant that can be used [2]: decreases
- approximate maximum grams of hydrophobic surfactant per 100 g of hydrophilic surfactant giving a clear aqueous dispersion [2, 6]: 40 g per 100 g of hydrophilic sur
- approximate maximum grams of hydrophobic surfactant per 100 g of hydrophilic surfactant giving a clear aqueous dispersion [2, 7]: 30 g per 100 g of hydrophilic sur
- approximate maximum grams of hydrophobic surfactant per 100 g of hydrophilic surfactant giving a clear aqueous dispersion [2, 8]: 25 g per 100 g of hydrophilic sur
- approximate maximum grams of hydrophobic surfactant per 100 g of hydrophilic surfactant giving a clear aqueous dispersion [2, 9]: 40 g per 100 g of hydrophilic sur
- approximate maximum grams of hydrophobic surfactant per 100 g of hydrophilic surfactant giving a clear aqueous dispersion [2, 10]: 65 g per 100 g of hydrophilic sur
- approximate maximum grams of hydrophobic surfactant per 100 g of hydrophilic surfactant giving acceptable optical clarity [2, 11]: 15 g per 100 g of hydrophilic sur
- approximate maximum grams of hydrophobic surfactant per 100 g of hydrophilic surfactant giving acceptable optical clarity [2, 12]: 10 g per 100 g of hydrophilic sur
- approximate maximum grams of hydrophobic surfactant per 100 g of hydrophilic surfactant giving acceptable optical clarity [2, 13]: 25 g per 100 g of hydrophilic sur
- approximate maximum grams of hydrophobic surfactant per 100 g of hydrophilic surfactant giving acceptable optical clarity [2, 14]: 65 g per 100 g of hydrophilic sur
- approximate maximum grams of hydrophobic surfactant per 100 g of hydrophilic surfactant giving acceptable optical clarity [2, 15]: 20 g per 100 g of hydrophilic sur
- approximate maximum grams of hydrophobic surfactant per 100 g of hydrophilic surfactant giving acceptable optical clarity [2, 16]: 5 g per 100 g of hydrophilic sur
- approximate maximum grams of hydrophobic surfactant per 100 g of hydrophilic surfactant giving acceptable optical clarity [2, 17]: 5 g per 100 g of hydrophilic sur

Compound: tetrahydrofurfuryl alcohol PEG ether [Glycofurol]
- maximum hydrophobic surfactant concentration giving a clear aqueous dispersion [2, 3]: 20 g per 100 g of hydrophilic sur
- maximum hydrophobic surfactant concentration giving a clear aqueous dispersion [2, 4]: 25 g per 100 g of hydrophilic sur
- maximum hydrophobic surfactant concentration giving a clear aqueous dispersion [2, 5]: 30 g per 100 g of hydrophilic sur
